Experimental data published in patent USRE35801E, “Prophylactic and therapeutic composition for circulatory disorders and method of treatment” (priority 1985, dated 1998).
“Also recorded” adds a separate entry of the source. Where a name gives a salt, the structure may show the parent alone.

How the values were obtained:
[1] = test system: lipid peroxidation (brain homogenate); experiment: Inhibitory action of lipid peroxidation in brain homogenate (TBA value); assay type: biochemical; settings: rat brain homogenate, 37° C., 30 minutes; for IC50: inhibition of lipid peroxidation
Procedure: (1) Inhibitory action of lipid peroxidation (a) Preparation of brain homogenate By use of Wister-strain male rat, brain homogenate was prepared following the procedure as described below. […] Next, a brain perfusion was conducted through the tube with ice-cooled 50 mM phosphate-buffered physiological saline (pH 7.4) hereinafter referred to as "PBS"), and the whole brain was extirpated. After removal of cerebellum, the wet weight of cerebrum was measured and, with addition of 9-fold amount of PBS, it was broken by a Teflon homogenizer in ice-water to be homogenized. After the brain homogenate was subjected to centrifugation at 4° C. at 2200 rpm for 10 minutes, 0.3 ml of the supernatant was apportioned into a light-shielding test tube equipped with a ground stopper, to provide a brain homogenate for evaluation of medicine. (b) Evaluation of test medicine To the brain homogenate produced in (a), 0.6 ml of PBS and 10 μl of ethanolic solution of a test medicine were added (to a final concentration of 500 μM or a concentration at a common ratio of 3 between 0.3 and 100 μm), and the mixture was heated in a warm bath at 37° C. for 30 minutes. […] Also, the same operation was performed by addition of 10 μl of ethanol (blank) in place of 10 μl ethanolic solution of the test medicine for measurement of blank. […] After shaking for about 30 seconds, the mixture was subjected to centrifugation at 3000 rpm for 10 minutes, and the supernatant was provided as a sample for measurement of peroxidized lipid.

[2] = test system: drowsy pattern of electroencephalogram induced by phenobarbital or pentobarbital sodium salt; experiment: Antagonistic action against drowsy pattern of electroencephalogram induced by phenobarbital or pentobarbital sodium salt; assay type: in vivo, Wistar-strain male rat; settings: for minimal effective dose: Rattus norvegicus, intravenous, sodium salt, drowsy EEG after PHB 30 mg/kg or PBT 5 mg/kg, read-out: Antagonistic action at dose or higher
Procedure: (2) Antagonistic action against drowsy pattern of so electroencephalogram induced by phenobarbital or pentobarbital sodium salt
A Wistar-strain male rat weighing about 400 g was intramasculary administered with 0.6 mg of d-tubocurarine to be immobilized and, while maintaining the rectal temperature at 37° to 38° C. under artificial respiration, the electroencephalogram of the left cerebral frontal cortex was measured and recorded. Also, within the left femoral artery and vein, cannulas for measurement of artery pressure and for administration of medicine were placed, respectively.
As the active ingredient of the present invention, sodium salt of the compound represented by Formula (I) was used and the respective doses of said active ingredient and 30 mg/kg of phenobarbital sodium salt (produced by Iwaki Seiyaku K.K.) (hereinafter called "PHB") or 5 mg/kg of pentobarbital sodium salt (hereinafter called PBT) were each dissolved in physiological saline and administered intravenously in a liquid amount of 1 ml/kg.
The action of the active ingredient of the present invention affecting the cortex electroencephalogram after PHB or PBT administration was investigated as follows; Namely, at the time of 5 minutes or later after PHB or PBT administration when increase of the slow-wave component can be clearly recognized on electroencephalogram, 1, 3, 10, 30 and 100 mg/kg of the active ingredient were administered. To the control group 1 ml/kg of physiological saline was intravenously administered.
Recording and analysis of electroencephalogram were continuously drawn together with artery pressure, heart rate and rectal temperature on the recorder through a multi-purpose monitoring recording device (model RM-85, produced by Nippon Koden K.K.). At the same time, electroencephalogram was recorded in data recorder (model A-65, produced by Sony K.K.), and compressed spectral array analysis was conducted by means of a computer for medical data processing (ATAC-450, produced by Nippon Koden K.K.).

[3] = test system: cerebral ischemia recirculation model; experiment: Protective action in cerebral ischemia recirculation model; assay type: in vivo, Wistar-strain male rat; set-up: key to Presence of electroencephalogram restoration / Judgement of action: The case when restoration of electroencephalogram is judged as +; case when not recognized as -; settings: 10 mg/kg into duodenum; 10 min cerebral ischemia (Table 3)
Procedure: (3) Protective action in cerebral ischemia recirculation model
A Wistar-strain male rat weighing about 400 g was administered intramascularly with 0.6 mg of di-tubocurarine to be immobilized and, after a trachea cannulation, the head portion was fixed under artificial respiration on a stereotaxic device. The head skin was cut open, cranial bone was bored, and then bipolar electrode for lead-out of electroencephalogram were placed on the surface of the subdural left frontal cerebral cortex. After the electrode was fixed with the cranial bone by use of dental cement, the animal was held on its back. Next, a cannula for measurement of systemic pressure was placed within the left femoral artery, and a cannula for additional administration of d-tubocurarine within the left femoral vein, respectively. The heart rate was measured and recorded by driving a heart rate meter with the artery wave.
After blood pressure, heart rate and various parameters of electroencephalogram were stabilized, 10 mg/kg of the active ingredient of the present invention prepared in a suspension so as to give 1 ml/kg in 1% tragacanth gum solution was administered directly into duodenum […]. To the control group, only the 1% tragacanth gum solution of the same volume was administered similarly.
Ten to twenty minutes after administration of the medicine, while monitoring the electroencephalogram, blood pressure and heart rate on a multi-purpose monitoring recording device (RM-85 model, produced by Nippon Koden K.K.), the following operations were performed according to the methods shown below for cerebral ischemia loading.
First, ribs were set free at the left costicartilage end to open the chest. Next, cerebral blood flow was blocked for ten minutes by obstructing the left common carotid artery and the left subclavian artery exposed at the aorta originating portion at the same time, and then the brachiocephalic trunk by use of artery clips 30 minutes after administration of the medicine.
Recirculation of cerebral blood flow was effected by releasing at the same time the two artery clips mounted on the respective sites as mentioned above.
The protective action of the medicine for the disorder after recirculation of cerebral ischemia was examined by the presence of restoration of electroencephalogram, and survival time of animal after the recirculation.
During the experiment, the rectal temperature of the animal was maintained at 37° to 38° C. by use of a warming mat. Also, the rectal temperature was continuously drawn on the recorder together with electroencephalogram, femoral artery pressure and heart rate.

[4] = test system: lipid peroxidation by active oxygen; settings: cited from earlier work

Compound | IC50 [1] [µM] | also measured
CC1=NN(c2ccccc2C)C(=O)C1 [Compound 2] | 392 | 
CC1=NN(c2cccc(C)c2)C(=O)C1 [Compound 3] | 8 | 
CC1=NN(c2ccc(C)cc2)C(=O)C1 [Compound 4] | 6.3 | minimal effective dose [2]: ≥ 10 mg/kg; Presence of electroencephalogram restoration [3]: +
CC1=NN(c2ccc(C)c(C)c2)C(=O)C1 [Compound 5] | 6 | 
CCCCc1ccc(N2N=C(C)CC2=O)cc1 [Compound 7] | 2.2 | 
CC1=NN(c2cccc(C(F)(F)F)c2)C(=O)C1 [Compound 8] | 3.9 | 
COc1ccccc1N1N=C(C)CC1=O [Compound 9] | 2130 | 
COc1cccc(N2N=C(C)CC2=O)c1 [Compound 10] | 7.1 | 
COc1ccc(N2N=C(C)CC2=O)cc1 [Compound 11] | 20.7 | minimal effective dose [2]: ≥ 10 mg/kg; Presence of electroencephalogram restoration [3]: +
COc1ccc(N2N=C(C)CC2=O)cc1OC [Compound 12] | 23 | 
CCOc1ccc(N2N=C(C)CC2=O)cc1 [Compound 13] | 10.3 | Presence of electroencephalogram restoration [3]: +
CC1=NN(c2ccccc2Cl)C(=O)C1 [Compound 14] | 97.8 | 
CC1=NN(c2cccc(Cl)c2)C(=O)C1 [Compound 15] | 3.4 | 
CC1=NN(c2ccc(Cl)cc2)C(=O)C1 [Compound 16] | 4 | Presence of electroencephalogram restoration [3]: +
CC1=NN(c2ccc(Cl)c(Cl)c2)C(=O)C1 [Compound 17] | 1.6 | 
CC1=NN(c2ccc(F)cc2)C(=O)C1 [Compound 18] | 12.1 | 
CC1=NN(c2ccc(C)c(Cl)c2)C(=O)C1 [Compound 19] | 4.1 | 
CSc1cccc(N2N=C(C)CC2=O)c1 [Compound 20] | 5.1 | 
CC1=NN(c2ccc(C(=O)O)cc2)C(=O)C1 [Compound 21] |  | Inhibitory percentage at 500 μM [1]: 34.0%
CCOC(=O)c1ccc(N2N=C(C)CC2=O)cc1 [Compound 22] | 5.2 | 
CC1=NN(c2ccc([N+](=O)[O-])cc2)C(=O)C1 [Compound 23] | 5.1 | 
CCC1=NN(c2ccccc2)C(=O)C1 [Compound 24, 3-Ethyl-1-phenyl-2-pyrazolin-5-one] | 15.1 | 
CCCC1=NN(c2ccccc2)C(=O)C1 [Compound 25, 1-Phenyl-3-propyl-2-pyrazolin-5-one] | 5.9 | minimal effective dose [2]: ≥ 10 mg/kg; Presence of electroencephalogram restoration [3]: +
O=C1CC(c2ccccc2)=NN1c1ccccc1 [Compound 26, 1,3-Diphenyl-2-pyrazolin-5-one] | 0.08 | 
Cc1ccc(N2N=C(c3ccccc3)CC2=O)cc1 [Compound 27] | 1.2 | 
COc1ccc(N2N=C(c3ccccc3)CC2=O)cc1 [Compound 28] | 3 | 

Compound | IC50 [1] [µM] | also measured
O=C1CC(c2ccccc2)=NN1c1ccc(Cl)cc1 [Compound 29] | 1.2 | 
CC1=NN(c2ccccc2)C(=O)C1C (stereo not shown) [Compound 30, 3,4-Dimethyl-1-phenyl-2-pyrazolin-5-one] | 20.6 | Presence of electroencephalogram restoration [3]: +
CC1=NN(c2ccccc2)C(=O)C1CC(C)C (stereo not shown) [Compound 31, 4-Isobutyl-3-methyl-1-phenyl-2-pyrazolin-5-one] | 5.7 | minimal effective dose [2]: ≥ 10 mg/kg; Presence of electroencephalogram restoration [3]: +
CC1=NN(c2ccccc2)C(=O)C1CCO (stereo not shown) [Compound 32, 4-(2-Hydroxyethyl)-3-methyl-1-phenyl-2-pyrazolin-5-one] |  | Inhibitory percentage at 500 μM [1]: 62.7%
CC1=NN(c2ccccc2)C(=O)C1Oc1ccccc1 (stereo not shown) [Compound 33] | 16.2 | 
CC1=NN(c2ccccc2)C(=O)C1Sc1ccccc1 (stereo not shown) [Compound 34] | 146 | 
O=C1C2CCCCC2=NN1c1ccccc1 (stereo not shown) [Compound 35, 3,3a,4,5,6,7-Hexahydro-2-phenyl-2H-indazol-3-one] | 16.4 | Presence of electroencephalogram restoration [3]: +
CCOC(=O)CC1=NN(c2ccccc2)C(=O)C1 [Compound 36, 3-(Ethoxycarbonylmethyl)-1-phenyl-2-pyrazolin-5-one] | 32.2 | 
CC1=NNC(=O)C1 [Compound 37, 3-Methyl-2-pyrazolin-5-one] |  | Inhibitory percentage at 500 μM [1]: 34.3%
CC1=NN(C)C(=O)C1 [Compound 38, 1,3-Dimethyl-2-pyrazolin-5-one] |  | Inhibitory percentage at 500 μM [1]: 45.5%
CC1=NN(CCO)C(=O)C1 [Compound 39, 1-(2-Hydroxyethyl)-3-methyl-2-pyrazolin-5-one] |  | Inhibitory percentage at 500 μM [1]: 39.2%
CC1=NN(C2CCCCC2)C(=O)C1 [Compound 40] | 24.8 | Presence of electroencephalogram restoration [3]: +
CC1=NN(Cc2ccccc2)C(=O)C1 [Compound 41] | 32.9 | 
CC1=NN(c2cccc3ccccc23)C(=O)C1 [Compound 42] | 4.9 | 
CN1N=C(c2ccccc2)CC1=O [Compound 43] | 27.2 | 
CC1=NN(c2ccccc2O)C(=O)C1 [Compound 44, 1-(2-hydroxyphenyl)-3-methyl-2-pyrazolin-5-one] | 35.5 | 
CC1=NN(c2cccc(O)c2)C(=O)C1 [Compound 45] | 21.2 | 
CC1=NN(c2ccc(O)cc2)C(=O)C1 [Compound 46] | 23.9 | 
CC1=NN(c2ccc(O)c(O)c2)C(=O)C1 [Compound 47] | 1.3 | 
O=C1CC(c2ccccc2)=NN1c1ccc(O)cc1 [Compound 48] | 2.7 | 
CC1=NN(c2ccc(CO)cc2)C(=O)C1 [Compound 49, 1-(4-hydroxymethylphenyl)-3-methyl-2-pyrazolin-5-one] | 51.8 | 
CC1=NN(c2ccc(N)cc2)C(=O)C1 [Compound 50, 1-(4-aminophenyl)-3-methyl-2-pyrazolin-5-one dihydrochloride] | 32.1 | 
O=C1CC=NN1c1ccccc1 [Compound 51, 1-Phenyl-2-pyrazolin-5-one] | 20.1 | 
CCC1(c2ccccc2)C(=O)NC(=O)NC1=O [PHB, phenobarbital sodium salt, reference compound] |  | persistence of sleep-like electroencephalogram after PHB ([2]; PHB 30 mg/kg intravenous): at least 3 hours
vitamin E |  | inhibition of lipid peroxidation by active oxygen [4]: can inhibit lipid peroxidation by active oxygen; also recorded: only unsatisfactory action
